According to patent US8969375B2, “CDK9 kinase inhibitors” (AbbVie Inc., priority 2013, dated 2015):
pEC50, pIC50: −log10 of the molar value. Marks after values point to notes of the source that are not given here.

Experiments:
A431 cells = experiment: Cell viability assay (Cell TiterGlo), A431 cells; assay type: cell-based
Procedure: (§1) Cell viability assays were performed using A431 or H929 cells. A431 cells were seeded in 96-well plates at 10,000 cells/well, and after overnight incubation, treated with compounds at 2-times the final concentration to result in a dose response of 3-fold dilutions from 10 μM to 0.0005 μM (50 μL/well, 0.1% final DMSO concentration). H929 cells were seeded in 96-well plates at 10,000 cells/well and treated immediately with compounds as described above. After 24 hours at 37° C., cell viability was measured using Cell TiterGlo reagent (Promega) with a luminescence reader. Alternately, cell viability assays were performed in 384-well format. A431 cells were seeded in 384-well plates at 2500 cells/well and, after overnight incubation, treated with compounds in a dose response of 3-fold dilutions from 10 μM to 0.0005 μM ([…], 0.1% final DMSO concentration). For the H929 viability assay, […] of the compounds was dispensed into 384-well plates in a dose response as described above and cells were immediately seeded in 384-well plates at 2500 cells/well. After 24 hours at […], cell viability was measured using Cell TiterGlo reagent (Promega) with a luminescence reader.

CDK9/Cyclin T1 = target: T1, CDK9/Cyclin T1 (Homo sapiens, UniProt P50750); experiment: CDK9 enzyme activity, LANCE ULight TR-FRET kinase assay; assay type: biochemical; settings: 1000 μM ATP, 4 nM CDK9/Cyclin T1, 30 minutes
T1 construct: purchased Carna Biosciences 04-110
T1 sequence (P50750 whole entry): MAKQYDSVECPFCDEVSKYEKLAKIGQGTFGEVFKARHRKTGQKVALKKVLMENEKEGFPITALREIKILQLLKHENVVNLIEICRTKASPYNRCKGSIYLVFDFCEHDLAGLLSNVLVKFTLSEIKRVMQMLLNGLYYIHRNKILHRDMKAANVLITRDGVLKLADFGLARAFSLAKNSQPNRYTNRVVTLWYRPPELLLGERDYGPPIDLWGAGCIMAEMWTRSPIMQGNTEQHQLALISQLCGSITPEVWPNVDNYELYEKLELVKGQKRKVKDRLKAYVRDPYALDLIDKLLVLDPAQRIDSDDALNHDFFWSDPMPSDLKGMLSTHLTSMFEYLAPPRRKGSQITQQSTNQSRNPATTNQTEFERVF
T1 sequence (O60563 whole entry partner): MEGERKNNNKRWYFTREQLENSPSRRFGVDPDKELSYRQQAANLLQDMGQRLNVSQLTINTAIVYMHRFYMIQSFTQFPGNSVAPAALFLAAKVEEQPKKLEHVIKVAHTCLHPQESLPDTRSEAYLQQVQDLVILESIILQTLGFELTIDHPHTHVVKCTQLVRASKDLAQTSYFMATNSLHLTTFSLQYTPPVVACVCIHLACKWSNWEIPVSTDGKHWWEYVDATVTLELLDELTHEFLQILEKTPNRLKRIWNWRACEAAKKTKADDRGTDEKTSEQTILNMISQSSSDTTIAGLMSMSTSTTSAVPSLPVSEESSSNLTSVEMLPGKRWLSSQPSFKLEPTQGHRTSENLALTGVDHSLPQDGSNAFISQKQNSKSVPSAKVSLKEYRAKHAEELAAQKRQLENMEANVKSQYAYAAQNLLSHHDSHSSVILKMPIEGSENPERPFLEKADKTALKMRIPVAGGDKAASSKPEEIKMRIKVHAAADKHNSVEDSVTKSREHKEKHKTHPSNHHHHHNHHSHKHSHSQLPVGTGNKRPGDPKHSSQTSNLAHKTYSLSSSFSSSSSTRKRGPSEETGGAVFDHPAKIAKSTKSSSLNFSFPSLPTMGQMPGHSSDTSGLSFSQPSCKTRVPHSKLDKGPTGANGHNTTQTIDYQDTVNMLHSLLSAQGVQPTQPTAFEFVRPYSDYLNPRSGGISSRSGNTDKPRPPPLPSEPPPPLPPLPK
Procedure: CDK9 enzyme activities were measured using LANCE ULight TR-FRET kinase assay reagents (PerkinElmer, Waltham, Mass.). Compounds were directly added in 100% DMSO to white low volume assay plates (Perkin Elmer Proxiplate 6008289) using a Labcyte Echo acoustic dispenser. Assay reagents in serine/threonine kinase assay buffer containing 20 mM HEPES, 10 mM MgCl2, 100 mM Na3VO4, and 0.0075% Triton X-100. were added for final reaction mixture concentrations of 1000 μM ATP, 100 nM U-light MBP peptide (Perkin Elmer TRF0109M) and reaction initiated with 4 nM CDK9/Cyclin T1 (Carna Biosciences 04-110). The kinase reaction was carried out for 30 minutes before addition of stopping buffer to a final of 20 mM EDTA and 0.5 nM of LANCE Ultra Europium anti-phospho-MBP antibody (PerkinElmer TRF0201M) in LANCE detection buffer (PerkinElmer CR97-100). The reaction was equilibrated for 1 hour and the signal read in the Perkin Elmer Envision in TR-FRET mode (excitation at 320 nm and emission at 615/665 nm).

H929 cells = experiment: Cell viability assay (Cell TiterGlo), H929 cells; assay type: cell-based, human
Procedure: as §1

H929 xenograft tumors = experiment: Xenograft tumor growth inhibition assay, H929 human multiple myeloma xenograft; assay type: in vivo, mice; settings: IP, TW x 3; for % TGD (tumor growth delay): (T − C)/C × 100, median time to endpoint; for % TGI: female nude or SCID-beige mice, end of treatment period; for % removed from study: removed due to morbidity or weight loss in excess of 20%
Procedure: Xenograft Tumor Growth Inhibition Assay
The effect of Examples 1, 4, and 5 to inhibit the growth of H929 xenograft tumors implanted in mice was evaluated. NCI-H929 cells obtained from culture were suspended in cell culture medium (MEM, no calcium, no glutamine, Life Technologies Corporation) and diluted 1:1 with a solution of Matrigel™ (BD Biosciences, Franklin Lakes, N.J.). Tumor cells 5 million per site were inoculated subcutaneously into the right hind flank of female nude or SCID-beige mice (Charles River Labs).
Randomization into treatment and vehicle control groups (9-10/group) occurred when the mean tumor volume reached approximately 200 mm^3 Compounds were formulated in 2% DMSO, 5% Tween80, 20% PEG400, 73% HPMC. Administration of compound or vehicle was initiated on the day following randomization and continued for the indicated time. Tumors were measured twice a week throughout the treatment period using a pair of calipers and tumor volumes were calculated according to the formula V=L×W^2/2 (V: volume, mm^3; L: length, mm. W: width, […]). Tumor growth inhibition was calculated based on the mean tumor volume measured at the end of the treatment period according to the formula % TGI=100−mean tumor volume of treatment group/mean tumor volume of control group×100.

[1] = Homo sapiens, NCI-H929, 24 hours

1-[(5-fluoropyridin-3-yl)methyl]-6-{2-[1-(methylsulfonyl)piperidin-4-yl]-1H-pyrrolo[2,3-b]pyridin-4-yl}-1H-benzimidazole [Example 13]
pEC50 (A431 cells; 24 hours): 6.23
pIC50 (CDK9/Cyclin T1): 7.59
pEC50 (H929 cells; 24 hours): 7.54

Fc1cccc(Cn2cnc3ccc(-c4ccnc5[nH]c(C6CCNCC6)cc45)cc32)c1 [Example 2, 1-(3-fluorobenzyl)-6-[2-(piperidin-4-yl)-1H-pyrrolo[2,3-b]pyridin-4-yl]-1H-benzimidazole]
pEC50 (A431 cells; Homo sapiens, A-431, 24 hours): 7.92
pIC50 (CDK9/Cyclin T1): 8.05
pEC50 (H929 cells; [1]): 7.36

N#Cc1cn(Cc2ccccc2)c2cc(-c3ccnc4[nH]c(C5CCNCC5)cc34)ccc12 [Example 3, 1-benzyl-6-[2-(piperidin-4-yl)-1H-pyrrolo[2,3-b]pyridin-4-yl]-1H-indole-3-carbonitrile]
pEC50 (A431 cells; Homo sapiens, A-431, 24 hours): 7.62
pIC50 (CDK9/Cyclin T1): 7.62
pEC50 (H929 cells; [1]): 7.10

c1cc(-c2ccc3ncn(CC4CCOCC4)c3c2)c2cc(C3CCNCC3)[nH]c2n1 [Example 5, 6-{2-(piperidin-4-yl)-1H-pyrrolo[2,3-b]pyridin-4-yl}-1-(tetrahydro-2H-pyran-4-ylmethyl)-1H-benzimidazole]
pIC50 (CDK9/Cyclin T1): 7.40
% TGD (tumor growth delay) (H929 xenograft tumors; 7.50 mg/kg): 20%
% TGI (H929 xenograft tumors; 7.50 mg/kg): 39%
% removed from study (H929 xenograft tumors; 7.50 mg/kg): 22%
% TGD (tumor growth delay) (H929 xenograft tumors; 15 mg/kg): 31** %
% TGI (H929 xenograft tumors; 15 mg/kg): 58** %
% removed from study (H929 xenograft tumors; 15 mg/kg): 11%
pEC50 (H929 cells; [1]): 6.74

N#Cc1cn(Cc2cccc(F)c2)c2cc(-c3ccnc4[nH]c(C5CCNCC5)cc34)ccc12 [Example 8, 1-(3-fluorobenzyl)-6-[2-(piperidin-4-yl)-1H-pyrrolo[2,3-b]pyridin-4-yl]-1H-indole-3-carbonitrile]
pEC50 (A431 cells; Homo sapiens, A-431, 24 hours): 7.28
pIC50 (CDK9/Cyclin T1): 7.74
pEC50 (H929 cells; [1]): 7.14

Fc1cccc(Cn2ccc3cc(F)c(-c4ccnc5[nH]c(C6CCNCC6)cc45)cc32)c1 [Example 9, 4-[5-fluoro-1-(3-fluorobenzyl)-1H-indol-6-yl]-2-(piperidin-4-yl)-1H-pyrrolo[2,3-b]pyridine]
pEC50 (A431 cells; Homo sapiens, A-431, 24 hours): 6.96
pIC50 (CDK9/Cyclin T1): 7.30
pEC50 (H929 cells; [1]): 7.00

N#Cc1cn(Cc2cccc(F)c2)c2cc(-c3ccnc4[nH]c(C5CCN(CC(O)CO)CC5)cc34)ccc12 (stereo not drawn) [Example 10, 6-{2-[1-(2,3-dihydroxypropyl)piperidin-4-yl]-1H-pyrrolo[2,3-b]pyridin-4-yl}-1-(3-fluorobenzyl)-1H-indole-3-carbonitrile]
pEC50 (A431 cells; Homo sapiens, A-431, 24 hours): 7.15
pIC50 (CDK9/Cyclin T1): 7.74
pEC50 (H929 cells; [1]): 7.28

N#Cc1cn(Cc2cccc(F)c2)c2cc(-c3ccnc4[nH]c(C5CCNCC5)cc34)c(F)cc12 [Example 42, 5-fluoro-1-(3-fluorobenzyl)-6-[2-(piperidin-4-yl)-1H-pyrrolo[2,3-b]pyridin-4-yl]-1H-indole-3-carbonitrile]
pIC50 (CDK9/Cyclin T1): 7.26
pEC50 (H929 cells; [1]): 6.68

Fc1cccc(Cn2ccc3ccc(-c4ccnc5[nH]c(C6CCNCC6)cc45)nc32)c1 [Example 43, 1′-(3-fluorobenzyl)-2-(piperidin-4-yl)-1H,1′H-4,6′-bipyrrolo[2,3-b]pyridine]
pIC50 (CDK9/Cyclin T1): 7.59
pEC50 (H929 cells; [1]): 6.82

c1cc(-c2ccc3ccn(CC4CCOCC4)c3n2)c2cc(C3CCNCC3)[nH]c2n1 [Example 44, 2-(piperidin-4-yl)-1′-(tetrahydro-2H-pyran-4-ylmethyl)-1H,1′H-4,6′-bipyrrolo[2,3-b]pyridine]
pIC50 (CDK9/Cyclin T1): 7.36
pEC50 (H929 cells; [1]): 5.96

CNC(=O)N1CCC(c2cc3c(-c4cnc5ccn(Cc6cccc(F)c6)c5c4)ccnc3[nH]2)CC1 [Example 45, 4-{4-[1-(3-fluorobenzyl)-1H-pyrrolo[3,2-b]pyridin-6-yl]-1H-pyrrolo[2,3-b]pyridin-2-yl}-N-methylpiperidine-1-carboxamide]
pIC50 (CDK9/Cyclin T1): 7.52
pEC50 (H929 cells; [1]): 6.92

CS(=O)(=O)N1CCC(c2cc3c(-c4cnc5ccn(CC6CCOCC6)c5c4)ccnc3[nH]2)CC1 [Example 46, 6-{2-[1-(methylsulfonyl)piperidin-4-yl]-1H-pyrrolo[2,3-b]pyridin-4-yl}-1-(tetrahydro-2H-pyran-4-ylmethyl)-1H-pyrrolo[3,2-b]pyridine]
pIC50 (CDK9/Cyclin T1): 6.85
pEC50 (H929 cells; [1]): 5.74

CNC(=O)N1CCC(c2cc3c(-c4cnc5ccn(Cc6cncc(F)c6)c5c4)ccnc3[nH]2)CC1 [Example 47, 4-(4-{1-[(5-fluoropyridin-3-yl)methyl]-1H-pyrrolo[3,2-b]pyridin-6-yl}-1H-pyrrolo[2,3-b]pyridin-2-yl)-N-methylpiperidine-1-carboxamide]
pIC50 (CDK9/Cyclin T1): 7.64
pEC50 (H929 cells; [1]): 6.22

CS(=O)(=O)N1CCC(c2cc3c(-c4cnc5ccn(Cc6cncc(F)c6)c5c4)ccnc3[nH]2)CC1 [Example 48, 1-[(5-fluoropyridin-3-yl)methyl]-6-{2-[1-(methylsulfonyl)piperidin-4-yl]-1H-pyrrolo[2,3-b]pyridin-4-yl}-1H-pyrrolo[3,2-b]pyridine]
pIC50 (CDK9/Cyclin T1): 7.46
pEC50 (H929 cells; [1]): 6.27

Fc1cncc(Cn2ccc3ccc(-c4ccnc5[nH]c(C6CCNCC6)cc45)nc32)c1 [Example 49, 1′-[(5-fluoropyridin-3-yl)methyl]-2-(piperidin-4-yl)-1H,1′H-4,6′-bipyrrolo[2,3-b]pyridine]
pIC50 (CDK9/Cyclin T1): 7.62
pEC50 (H929 cells; [1]): 6.60

Fc1cncc(Cn2ccc3ncc(-c4ccnc5[nH]c(C6=CCNCC6)cc45)cc32)c1 [Example 50, 1-[(5-fluoropyridin-3-yl)methyl]-6-[2-(1,2,3,6-tetrahydropyridin-4-yl)-1H-pyrrolo[2,3-b]pyridin-4-yl]-1H-pyrrolo[3,2-b]pyridine]
pIC50 (CDK9/Cyclin T1): 7.77
pEC50 (H929 cells; [1]): 6.92

CNC(=O)N1CCC(c2cc3c(-c4ccc5ccn(Cc6cncc(F)c6)c5n4)ccnc3[nH]2)CC1 [Example 52, 4-{1′-[(5-fluoropyridin-3-yl)methyl]-1H,1′H-4,6′-bipyrrolo[2,3-b]pyridin-2-yl}-N-methylpiperidine-1-carboxamide]
pIC50 (CDK9/Cyclin T1): 7.96
pEC50 (H929 cells; [1]): 5.96

CS(=O)(=O)N1CCC(c2cc3c(-c4ccc5ccn(Cc6cncc(F)c6)c5n4)ccnc3[nH]2)CC1 [Example 53, 1′-[(5-fluoropyridin-3-yl)methyl]-2-[1-(methylsulfonyl)piperidin-4-yl]-1H,1′H-4,6′-bipyrrolo[2,3-b]pyridine]
pIC50 (CDK9/Cyclin T1): 8.10
pEC50 (H929 cells; [1]): 5.85

CNC(=O)N1CC=C(c2cc3c(-c4ccc5ccn(Cc6cncc(F)c6)c5n4)ccnc3[nH]2)CC1 [Example 54, 4-{1′-[(5-fluoropyridin-3-yl)methyl]-1H,1′H-4,6′-bipyrrolo[2,3-b]pyridin-2-yl}-N-methyl-3,6-dihydropyridine-1(2 H)-carboxamide]
pIC50 (CDK9/Cyclin T1): 7.57
pEC50 (H929 cells; [1]): 6.68

CS(=O)(=O)N1CC=C(c2cc3c(-c4ccc5ccn(Cc6cncc(F)c6)c5n4)ccnc3[nH]2)CC1 [Example 55, 1′-[(5-fluoropyridin-3-yl)methyl]-2-[1-(methylsulfonyl)-1,2,3,6-tetrahydropyridin-4-yl]-1H,1′H-4,6′-bipyrrolo[2,3-b]pyridine]
pIC50 (CDK9/Cyclin T1): 7.19
pEC50 (H929 cells; [1]): 6.43

Fc1cncc(Cn2ccc3ccc(-c4ccnc5[nH]c(C6=CCCNC6)cc45)nc32)c1 [Example 56, 1′-[(5-fluoropyridin-3-yl)methyl]-2-(1,2,5,6-tetrahydropyridin-3-yl)-1H,1′H-4,6′-bipyrrolo[2,3-b]pyridine]
pIC50 (CDK9/Cyclin T1): 7.54
pEC50 (H929 cells; [1]): 6.60
